In patent publication US11964951B2, “Process of making derivatives of substituted morpholines” (Supernus Pharmaceuticals, Inc., priority 2022, dated 2024):

Experiments:
[1] = relative to the (R)-(+)-isomer; J. Med. Chem. 1976, 19(8), 1074; cited from earlier work
[2] = chemical stability on standing / by HPLC during work-up; format: physicochemical; settings: kept at room temperature overnight
Procedure: The process was repeated. The mother liquor materials were combined. A 15-g portion of the mother liquor material (a syrupy liquid) was subjected to a water-acid-base extraction by dissolving the mother liquor in 50 mL of ethyl acetate and washing with water then with 1N HCl (2×). The ethyl acetate layer contained 2-((2-ethoxyphenoxy)methyl)morpholine, unreacted BOC compound 5, and a trace of the desired compound. The HCl solution was mainly the desired amine 6 HCl salt plus some 2-((2-ethoxyphenoxy)methyl)morpholine and a minor impurity. This solution was made alkaline with sodium bicarbonate, extracted with dichloromethane (3×) washed with brine, and dried over magnesium sulfate. […] The material was kept at room temperature overnight whereupon it decomposed.
The ethyl acetate solution of the free base was treated with a solution of 150 mg of maleic acid in 2 mL of isopropanol. […] The material was dissolved in dichloromethane, washed with water, and evaporated to give 374 mg of the maleate as an oil.

| stability of the isolated material [2] | SMILES | pharmacological activity as compared to the (R)-(+)-isomer [1] |
| --- | --- | --- |
| – | CCOc1ccccc1OC[C@@H]1CNCCO1 [(S)-enantiomer, (S)-2-((2-ethoxyphenoxy)methyl)morpholine] | five times |
| decomposed | CCOc1ccccc1OC[C@@H]1CN(C(=O)OC(C)OC(=O)[C@@H](N)C(C)C)CCO1.Cl (mixture of isomers) [Compound 6, 1-[(S)-2-Amino-3-methylbutyroxy]ethyl (S)-2-[(o-ethoxyphenoxy)methyl]-4-morpholinecarboxylate, hydrochloride] | – |
